Results from patent US7384971B2, “Phytochemicals for the treatment of cervical dysplasia” (BioResponse L.L.C., priority 1999, dated 2008).

Key:
colon cancer cells = conditions: cited from earlier work
[1] = test system: non-cancerous colon cells; conditions: cited from earlier work
MCF7 breast cancer cells = conditions: tested in the absence of estrogen; cited from earlier work
[2] = test system: person with severe endometriosis; experiment: Case study: processed DIM for endometriosis pain (Example 8); assay type: in vivo, human
Excerpt: patient two is a slender and athletic person who sought alternatives in their management of severe endometriosis. Their symptoms of recurrent mid-cycle and menstrually associated pain have been diagnosed as due to endometriosis based on pelvic laparoscopy. This procedure confirmed aggressive endometriosis with ectopic endometrial implants removed from the pelvis and associated with intestinal serosal spread. A history of 2 years of intense pelvic pain at mid-cycle and during menstrual flow was reported prior to the laparoscopy. Their parent gives a history of painful menstrual periods […]. They went on to develop ovarian cancer requiring radical surgery […]. A maternal aunt developed cervical cancer requiring surgery. […] Like the patient, a younger sibling has been troubled with painful menstrual periods and pelvic pain leading to laparoscopy and the diagnosis of endometriosis.
Following the patient's laparoscopy, one menstrual period was still associated with significant pain. Supplementation with bioavailable processed DIM was begun approximately 6 weeks following the laparoscopy. Initial supplementation with bioavailable processed DIM provided 300 mg/day for one month which was reduced to 150 mg/day thereafter. […] The patient continued DIM supplementation for about one year.

[3] = test system: person with chronic recurring breast pain (mastalgia); experiment: Case study: processed DIM for chronic recurring breast pain (Example 5); assay type: in vivo, human; set-up: key to Typical Breast Pain Score / Typical Breast Soreness Score: 0 = none; 1 = mild; 2 = moderate; 3 = significant; 4 = severe; conditions: After DIM, 225 mg per day, one month
Excerpt: The purpose of this study was to determine whether dietary supplementation with the cruicferous phytochemical, Diindolylmethane (DIM) is effective in relieving the pain of this chronic condition. patient one is a person referred for evaluation of perimenopausal symptoms of chronic recurring breast pain. They had been troubled by breast pain for many years with recent worsening in their symptoms. They had undergone a vaginal hysterectomy due to excessive and painful menstrual periods. Since their ovaries were left intact, they have received no Hormonal Replacement Therapy (HRT). During the last 4 years they experienced a monthly cycle of breast pain for about one week of each month. The breast pain was bilateral, associated with significant tenderness to touch, and a discomfort described as “heaviness or swelling.” A trial of a women's health supplement containing Don Quai provided no relief. Evaluation included a baseline morning urine sample and close assessment of their symptoms of breast pain during the ensuing month. Following this, bioavailable DIM was begun as a supplement at 225 mg per day together with increased dietary fiber. […] A second urine sample was obtained after one month on the DIM supplement.

[4] = test system: 2-hydroxy and 16-hydroxy estrogen metabolites; experiment: Urinary estrogen metabolites, Elisa based assay (Estratest); assay type: in vivo, human; conditions: After DIM, 225 mg per day
Method: Evaluation included a baseline morning urine sample and close assessment of their symptoms of breast pain during the ensuing month. Following this, bioavailable DIM was begun as a supplement at 225 mg per day together with increased dietary fiber. […] A second urine sample was obtained after one month on the DIM supplement.
The urine samples were subsequently analyzed for their levels of 2-hydroxy and 16-hydroxy estrogen metabolites, using an Elisa based assay (Estratest, Immunacare, Inc., Bethlehem, Pa.).

serum Ca-125 antigen = experiment: Serial serum Ca-125 antigen levels in endometriosis patient; assay type: in vivo, human
Excerpt: Diagnosis of the endometriosis and reduction in pain severity correlated with serial levels of serum Ca-125 antigen. Ca-125 is a serum marker with documented usefulness in monitoring the activity of endometriosis in a given patient (Pittaway D E and Fayez J A, 1986, “The use of CA-125 in the diagnosis and management of endometriosis”, Fertil Steril 46:790).

[5] = test system: carcinogen-induced breast cancer; conditions: oral; cited from earlier work
women with endometriosis = conditions: endometriosis therapy; cited from earlier work
women with mastalgia = conditions: cited from earlier work
[6] = test system: recurrent laryngeal papillomatosis and cervical dysplasia; conditions: dietary supplementation; cited from earlier work
[7] = test system: 2-hydroxy estrogen metabolism; conditions: women; cited from earlier work
[8] = Follow up Visit #3, Use of DIM YES
[9] = Follow-up Visit #1, Use of DIM YES
[10] = Follow-up Visit #2, Use of DIM YES

For `c1ccc2c(Cc3c[nH]c4ccccc34)c[nH]c2c1` [DIM, 3,3′-Diindolylmethane], the “Effect on cell growth” value (colon cancer cells) is given as “selective growth inhibitory activity”, the Growth inhibitory activity [1] is given as “not observed” and the “Effect on cell growth” value (MCF7 breast cancer cells) is given as “promoted growth”. The “Pain Level” value [2, 8] was “Improved”, the “Pain Level” value [2, 9] was “Improved” and the “Pain Level” value [2, 10] was “Improved”. For the same molecule, the “Comfort of menstrual periods / need for analgesics” value ([2]; supplementation for about one year) was “more comfortable, no longer requiring analgesics”, the “Typical Breast Soreness Score (in words)” value [3] was “Absent” and the “Typical Breast Pain Score (in words)” value ([3]; one patient) was “Absent”. For the same molecule, the “Typical Breast Pain Score” value ([3]; score out of 4) was 0/4, the “Typical Breast Soreness Score” value ([3]; score out of 4) was 0/4 and the “2-Hydroxy estrone level, urinary” value ([4]; morning urine after one month) was 26.4 ng/ml/mg Creatinine. The “2-Hydroxy to 16-Hyroxy estrone ratio” value ([4]; urine after one month) was 5.08, the “16-Hydroxy estrone level, urinary” value ([4]; urine after one month) was 5.1 ng/ml/mg Creatinine and the “Total urinary estrone metabolites” value ([4]; urine after one month) was 31.3 ng/ml/mg Creatinine. The “Ca-125 Antigen” value (serum Ca-125 antigen; [8]) was 34.0, the “Ca-125 Antigen” value (serum Ca-125 antigen; [9]) was 26.4 and the “Ca-125 Antigen” value (serum Ca-125 antigen; [10]) was 23.2. The “Effect on tumor growth” value [5] was “impede the growth”.
In the case of `C#C[C@]1(O)CC[C@H]2[C@@H]3CCC4=Cc5oncc5C[C@]4(C)[C@H]3CC[C@@]21C` [Danazol], the “Women experiencing adverse side effects” value (women with endometriosis) is given as “up to 80%” and the “Response rate in mastalgia” value (women with mastalgia; severe breast pain) is given as 70%.
In the case of `OCc1c[nH]c2ccccc12` [I3C, Indole-3-carbinol], the Clinical outcome [6] is listed as “some clinical improvement” and the “Effect on 2-hydroxy estrogen metabolism” value [7] is listed as “increase 2-hydroxy estrogen metabolism”.
In the case of `CC(=O)O[C@]1(C(C)=O)CC[C@H]2[C@@H]3C[C@H](C)C4=CC(=O)CC[C@]4(C)[C@H]3CC[C@@]21C` [medroxyprogesterone acetate], the “Relief of mastalgia versus placebo” value (women with mastalgia; controlled trial) is listed as “no better than placebo”.
